ChEMBL document CHEMBL3774333, “Identification of SNAIL1 Peptide-Based Irreversible Lysine-Specific Demethylase 1-Selective Inactivators” (J Med Chem, 2016)
Activity calls are given as the source filed them. The calls are words filed in the database; no cut-off is given here.

Assays:
[1] = biological target: T1, Lysine-specific histone demethylase 1A (Homo sapiens, UniProt O60341); assay: biochemical
Description: Inhibition of full length N-terminal His-tagged human recombinant LSD1 (1 to 852 residues) expressed in Escherichia coli BL21(DE3) cells using H3K4me2 peptide as substrate preincubated for 5 mins followed by substrate addition measured for 30 mins by peroxidase coupled assay

[2] = biological target: T2, Amine oxidase [flavin-containing] B (Homo sapiens, UniProt P27338); assay: biochemical
T2 sequence (P27338 whole entry): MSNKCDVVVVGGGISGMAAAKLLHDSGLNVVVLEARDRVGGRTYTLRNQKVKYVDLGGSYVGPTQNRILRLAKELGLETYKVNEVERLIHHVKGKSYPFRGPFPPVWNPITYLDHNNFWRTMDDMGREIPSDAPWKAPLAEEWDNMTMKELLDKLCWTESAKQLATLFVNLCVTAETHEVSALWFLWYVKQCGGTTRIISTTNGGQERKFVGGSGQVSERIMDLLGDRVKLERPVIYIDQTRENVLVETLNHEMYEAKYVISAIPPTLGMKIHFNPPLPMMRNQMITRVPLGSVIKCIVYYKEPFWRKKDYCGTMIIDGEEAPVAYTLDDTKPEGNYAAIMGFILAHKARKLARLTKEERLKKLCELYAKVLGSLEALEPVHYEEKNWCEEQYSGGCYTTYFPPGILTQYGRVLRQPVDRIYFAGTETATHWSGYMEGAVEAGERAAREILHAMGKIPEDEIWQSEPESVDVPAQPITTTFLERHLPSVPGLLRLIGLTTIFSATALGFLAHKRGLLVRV
Description: Inhibition of human recombinant MAO-B expressed in baculovirus infected BTI insect cells using (4S)-4,5-dihydro-2-(6-hydroxybenzothiazolyl)-4-thiazolecarboxylic acid as substrate incubated for 60 mins by MAO-Glo assay

[3] = species: Homo sapiens
[4] = biological target: T3, Lysine-specific histone demethylase 2 (Homo sapiens, UniProt Q8NB78); assay: biochemical
T3 sequence (Q8NB78 whole entry): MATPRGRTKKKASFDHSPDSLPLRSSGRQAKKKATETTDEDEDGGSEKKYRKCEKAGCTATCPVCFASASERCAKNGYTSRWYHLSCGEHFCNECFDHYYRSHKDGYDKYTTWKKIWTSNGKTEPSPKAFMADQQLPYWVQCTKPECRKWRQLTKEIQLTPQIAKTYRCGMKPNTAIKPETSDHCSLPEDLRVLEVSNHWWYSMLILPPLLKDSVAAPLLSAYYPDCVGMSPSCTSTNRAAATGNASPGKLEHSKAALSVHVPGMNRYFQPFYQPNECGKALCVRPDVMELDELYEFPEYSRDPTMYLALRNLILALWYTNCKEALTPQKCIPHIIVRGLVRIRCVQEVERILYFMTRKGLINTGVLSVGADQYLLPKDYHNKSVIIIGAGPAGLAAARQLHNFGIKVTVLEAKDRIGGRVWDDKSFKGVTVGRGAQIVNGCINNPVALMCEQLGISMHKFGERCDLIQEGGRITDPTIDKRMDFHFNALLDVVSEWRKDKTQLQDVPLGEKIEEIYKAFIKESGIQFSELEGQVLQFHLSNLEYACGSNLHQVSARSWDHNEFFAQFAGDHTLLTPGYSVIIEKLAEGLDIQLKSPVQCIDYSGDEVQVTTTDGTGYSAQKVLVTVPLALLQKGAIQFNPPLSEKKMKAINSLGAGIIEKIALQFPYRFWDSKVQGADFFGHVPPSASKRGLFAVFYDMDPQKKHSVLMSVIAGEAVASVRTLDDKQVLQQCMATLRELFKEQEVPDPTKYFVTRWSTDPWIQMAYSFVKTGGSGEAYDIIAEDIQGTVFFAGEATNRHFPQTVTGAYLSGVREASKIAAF
Description: Inhibition of full length N-terminal His-tagged human LSD2 (1 to 822 residues) expressed in Escherichia coli BL21(DE3) cells using H3K4me2 peptide substrate by MALDI-TOF mass spectrometric analysis

[5] = biological target: T1, Lysine-specific histone demethylase 1A; assay: Inhibition of LSD1 in human HeLa cells assessed as H3K4me2/H3 ratio at 20 uM after 24 hrs by Western blot analysis in absence of fetal bovine serum; assay type: cell-based
[6] = biological target: T4, Amine oxidase [flavin-containing] A (Homo sapiens, UniProt P21397); assay: biochemical
T4 sequence (P21397 whole entry): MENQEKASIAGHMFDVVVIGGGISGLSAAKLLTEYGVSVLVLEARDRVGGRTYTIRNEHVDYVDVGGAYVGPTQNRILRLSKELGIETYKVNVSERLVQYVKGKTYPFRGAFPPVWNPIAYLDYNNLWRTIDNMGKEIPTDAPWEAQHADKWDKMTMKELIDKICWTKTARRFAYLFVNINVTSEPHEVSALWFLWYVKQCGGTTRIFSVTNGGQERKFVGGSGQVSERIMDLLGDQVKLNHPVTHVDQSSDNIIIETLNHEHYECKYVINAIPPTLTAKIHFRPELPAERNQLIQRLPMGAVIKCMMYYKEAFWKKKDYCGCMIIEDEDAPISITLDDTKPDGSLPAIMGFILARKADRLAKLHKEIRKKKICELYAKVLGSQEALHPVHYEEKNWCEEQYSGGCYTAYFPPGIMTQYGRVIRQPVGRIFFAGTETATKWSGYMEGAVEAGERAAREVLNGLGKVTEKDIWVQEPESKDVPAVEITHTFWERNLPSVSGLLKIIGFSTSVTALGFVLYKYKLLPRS
Description: Inhibition of human recombinant MAO-A expressed in baculovirus infected BTI insect cells using (4S)-4,5-dihydro-2-(6-hydroxybenzothiazolyl)-4-thiazolecarboxylic acid as substrate incubated for 60 mins by MAO-Glo assay

[7] = species: Homo sapiens; remark: listed apart in the source
[8] = species: Homo sapiens; remark: listed apart in the source
[9] = test system: HeLa; assay: Antiproliferative activity against human HeLa cells assessed as inhibition of cell viability at 12.5 to 100 uM treated for 24 hrs measured after 48 hrs by alamar blue assay in absence of fetal bovine serum; assay type: functional, cell-based
[10] = species: Homo sapiens; remark: listed apart in the source
[11] = biological target: Lysine-specific demethylase 5A (Homo sapiens, UniProt P29375)
Sequence of Lysine-specific demethylase 5A (P29375 whole entry): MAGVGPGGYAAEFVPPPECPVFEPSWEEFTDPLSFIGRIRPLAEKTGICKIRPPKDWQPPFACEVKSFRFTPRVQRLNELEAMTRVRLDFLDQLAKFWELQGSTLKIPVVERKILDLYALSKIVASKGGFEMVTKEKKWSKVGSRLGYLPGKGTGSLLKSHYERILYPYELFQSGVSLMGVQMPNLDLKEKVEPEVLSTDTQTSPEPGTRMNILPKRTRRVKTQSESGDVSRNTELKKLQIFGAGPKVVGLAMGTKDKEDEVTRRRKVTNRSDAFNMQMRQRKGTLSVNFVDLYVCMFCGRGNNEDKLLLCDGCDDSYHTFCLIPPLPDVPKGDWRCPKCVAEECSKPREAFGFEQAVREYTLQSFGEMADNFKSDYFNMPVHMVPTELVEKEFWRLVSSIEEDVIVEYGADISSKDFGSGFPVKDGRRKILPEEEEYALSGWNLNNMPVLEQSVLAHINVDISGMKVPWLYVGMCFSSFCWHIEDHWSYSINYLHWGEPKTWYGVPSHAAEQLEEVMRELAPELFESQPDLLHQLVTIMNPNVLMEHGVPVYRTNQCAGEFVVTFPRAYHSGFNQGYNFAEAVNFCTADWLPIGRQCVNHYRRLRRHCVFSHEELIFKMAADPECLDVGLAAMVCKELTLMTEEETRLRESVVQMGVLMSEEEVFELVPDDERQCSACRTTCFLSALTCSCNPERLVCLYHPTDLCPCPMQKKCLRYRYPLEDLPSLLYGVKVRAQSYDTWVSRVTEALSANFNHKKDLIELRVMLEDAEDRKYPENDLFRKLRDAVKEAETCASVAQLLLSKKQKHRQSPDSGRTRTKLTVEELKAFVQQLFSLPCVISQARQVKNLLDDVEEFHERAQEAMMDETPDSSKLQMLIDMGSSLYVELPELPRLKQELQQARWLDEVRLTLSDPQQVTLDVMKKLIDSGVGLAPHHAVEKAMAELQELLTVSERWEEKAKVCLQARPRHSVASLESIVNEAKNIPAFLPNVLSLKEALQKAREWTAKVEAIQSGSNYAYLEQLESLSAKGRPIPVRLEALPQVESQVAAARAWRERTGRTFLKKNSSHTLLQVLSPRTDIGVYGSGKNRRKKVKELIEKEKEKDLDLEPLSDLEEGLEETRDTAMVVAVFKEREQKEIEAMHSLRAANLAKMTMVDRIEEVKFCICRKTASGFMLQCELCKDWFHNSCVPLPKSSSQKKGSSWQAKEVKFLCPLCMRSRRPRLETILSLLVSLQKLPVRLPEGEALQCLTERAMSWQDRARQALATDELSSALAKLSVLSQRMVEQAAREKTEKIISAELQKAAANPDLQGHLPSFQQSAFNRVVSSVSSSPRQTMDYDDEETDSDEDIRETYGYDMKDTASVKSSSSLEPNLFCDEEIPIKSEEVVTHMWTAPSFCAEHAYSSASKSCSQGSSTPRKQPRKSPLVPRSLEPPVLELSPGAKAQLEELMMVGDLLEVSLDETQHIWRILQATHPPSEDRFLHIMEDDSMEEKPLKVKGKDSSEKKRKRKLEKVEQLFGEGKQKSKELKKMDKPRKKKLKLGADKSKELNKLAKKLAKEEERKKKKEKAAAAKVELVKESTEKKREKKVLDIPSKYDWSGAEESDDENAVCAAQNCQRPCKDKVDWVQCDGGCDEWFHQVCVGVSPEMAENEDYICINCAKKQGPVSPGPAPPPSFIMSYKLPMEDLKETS
Description: Inhibition of JARID1A (unknown origin) using H3K4me3 peptide substrate preincubated for 5 mins followed by substrate addition by MALDI-TOF mass spectrometric analysis

[12] = biological target: T1, Lysine-specific histone demethylase 1A; conditions: 22 h
Description: Drug metabolism assessed as LSD1 (unknown origin)-mediated compound-FAD adduct formation after 22 hrs by MALDI-TOF mass spectrometric analysis

IC50 [1] [µM]	IC50 [2] [µM]	IC50 [4] [µM]	Ratio [5]	IC50 [6] [µM]	IC50 [11] [µM]	Drug metabolism [12]	Compound	Ratio IC50 [3]	Ratio IC50 [7]	Ratio IC50 [8]	inhibition [9]	Ratio IC50 [10]
40							C#CCN(CCC[C@H](NC(=O)[C@H](CO)NC(=O)[C@H](CCCNC(=N)N)NC(=O)[C@@H]1CCCN1)C(=O)N[C@@H](CC(C)C)C(=O)N[C@H](C(=O)N[C@@H](CCCNC(=N)N)C(=O)N[C@@H](CCCCN)C(=O)N1CCC[C@H]1C(=O)N[C@@H](CO)C(=O)N[C@@H](CC(=O)O)C(=O)N1CCC[C@H]1C(=O)N[C@@H](CC(N)=O)C(=O)N[C@@H](CCCNC(=N)N)C(=O)N[C@@H](CCCCN)C(=O)N1CCC[C@H]1C(=O)N[C@@H](CC(N)=O)C(=O)N[C@@H](Cc1ccc(O)cc1)C(=O)N[C@@H](CO)C(=O)N[C@@H](CCC(N)=O)C(N)=O)C(C)C)Cc1ccccc1					
63							CC(C)C[C@H](NC(=O)[C@H](CCCCN[C@H]1C[C@@H]1c1ccccc1)NC(=O)[C@H](CO)NC(=O)[C@H](CCCNC(=N)N)NC(=O)[C@@H]1CCCN1)C(=O)N[C@H](C(=O)N[C@@H](CCCNC(=N)N)C(=O)N[C@@H](CCCCN)C(=O)N1CCC[C@H]1C(=O)N[C@@H](CO)C(=O)N[C@@H](CC(=O)O)C(=O)N1CCC[C@H]1C(=O)N[C@@H](CC(N)=O)C(=O)N[C@@H](CCCNC(=N)N)C(=O)N[C@@H](CCCCN)C(=O)N1CCC[C@H]1C(=O)N[C@@H](CC(N)=O)C(=O)N[C@@H](Cc1ccc(O)cc1)C(=O)N[C@@H](CO)C(=O)N[C@@H](CCC(N)=O)C(N)=O)C(C)C					
0.32	30	7.51	1.52	> 30	5.05	metabolite_detected	CC(C)C[C@@H](NC(=O)[C@@H](CCCNN)NC(=O)[C@@H](CO)NC(=O)[C@H](CCCNC(=N)N)NC(=O)[C@@H]1CCCN1)C(=O)N[C@@H](C(=O)N[C@H](CCCNC(=N)N)C(=O)N[C@H](CCCCN)C(=O)N1CCC[C@@H]1C(=O)N[C@@H](CO)C(=O)N[C@@H](CC(=O)O)C(=O)N1CCC[C@H]1C(=O)N[C@@H](CC(N)=O)C(=O)N[C@@H](CCCNC(=N)N)C(=O)N[C@H](CCCCNC(=O)[C@H](CCCNC(=N)N)NC(=O)[C@H](CCCNC(=N)N)NC(=O)[C@H](CCCNC(=N)N)NC(=O)[C@H](CCCNC(=N)N)NC(=O)[C@H](CCCNC(=N)N)NC(=O)[C@H](CCCNC(=N)N)NC(=O)[C@H](CCCNC(=N)N)NC(=O)[C@H](N)CCCNC(=N)N)C(=O)N1CCC[C@H]1C(=O)N[C@H](CC(N)=O)C(=O)N[C@@H](Cc1ccc(O)cc1)C(=O)N[C@@H](CO)C(=O)N[C@@H](CCC(N)=O)C(N)=O)C(C)C	> 94	94	23	Active	16
